The text below walks through data of US11655260B2, “Heterocyclic compounds as arginase inhibitors” (Guangdong Newopp Biopharmaceuticals Co., Ltd., priority 2017, dated 2023).

Where a name gives a salt, the structure may show the parent alone. Some results are limits rather than exact numbers.

The assay deals with T1, recombinant human arginase 1 (Homo sapiens, UniProt P05089).
T1 sequence (P05089 1-322): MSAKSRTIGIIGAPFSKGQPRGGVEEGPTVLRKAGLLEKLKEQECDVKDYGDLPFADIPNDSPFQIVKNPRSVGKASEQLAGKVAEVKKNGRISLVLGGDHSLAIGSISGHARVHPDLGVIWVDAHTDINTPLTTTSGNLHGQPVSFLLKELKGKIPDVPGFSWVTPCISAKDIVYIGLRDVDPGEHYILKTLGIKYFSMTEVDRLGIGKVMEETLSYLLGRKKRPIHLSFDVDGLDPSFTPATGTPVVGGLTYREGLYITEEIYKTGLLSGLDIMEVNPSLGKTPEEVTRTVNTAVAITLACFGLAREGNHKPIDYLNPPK
Kind of assay: Arginase inhibitory activity test (urea detection), arginase 1. It counts as biochemical. The following applies: recombinant human arginase 1, L-arginine substrate, 37° C. for 120 min, urea measurement; read-out: Arg 1 enzymatic potency. From the text: Arginase Inhibitory Activity Test
Urea was used as the standard.
In the case of `CNS(=O)(=O)N1C[C@H](CCCB(O)O)[C@](N)(C(=O)O)C1` (racemic) [Example 2, (rac)trans-3-amino-4-(3-boronopropyl)-1-(N-methylsulfamoyl)pyrrolidine-3-carboxylic acid, (1:1) 2,2,2-trifluoroacetic Acid Salt], the IC50 fell in the range of 1000 to 101000 nM.

Take `NC(=O)CNS(=O)(=O)N1C[C@H](CCCB(O)O)[C@](N)(C(=O)O)C1` (racemic) [Example 7, (rac)trans-3-amino-1-(N-(2-amino-2-oxoethyl)sulfamoyl)-4-(3-boronopropyl)pyrrolidine-3-carboxylic Acid, (1:1) 2,2,2-trifluoroacetic Acid Salt]: the IC50 was in the range of 1000 to 101000 nM.

As to `CC(C)C(NS(=O)(=O)N1CC(CCCB(O)O)C(N)(C(=O)O)C1)C(=O)O` (racemic) [Example 11, (rac)trans-3-amino-4-(3-boronopropyl)-1-(N—((S)-1-carboxy-2-methylpropyl)sulfamoyl)pyrrolidine-3-carboxylic Acid (Diastereomer), (1:1) 2,2,2-trifluoroacetic Acid Salt], the IC50 fell in the range of 1000 to 101000 nM.

As to `CCOC(=O)[C@]1(N)CN(S(=O)(=O)NCCN)C[C@@H]1CCCB(O)O` (racemic) [Example 14, (rac)(3-(trans-4-amino-1-(N-(2-aminoethyl)sulfamoyl)-4-(ethoxycarbonyl)pyrrolidin-3-yl)propyl)boronic Acid, (1:2) 2,2,2-trifluoroacetic Acid Salt], the IC50 was in the range of 100 to 1000 nM.

Consider `C[C@H](N)CNS(=O)(=O)N1C[C@H](CCCB(O)O)[C@](N)(C(=O)O)C1` (racemic) [Example 18, (rac)trans-3-amino-1-(N—((S)-2-aminopropyl)sulfamoyl)-4-(3-boronopropyl)pyrrolidine-3-carboxylic Acid (Diastereomers), 2,2,2-trifluoroacetic Acid Salt (1:2)], for which the IC50 lay within 100 to 1000 nM.

With `N[C@@H]1CCCCC1NS(=O)(=O)N1C[C@H](CCCB(O)O)[C@](N)(C(=O)O)C1` (mixture of isomers) [Example 20, (rac)trans-3-amino-1-(N-((rac)cis-2-aminocyclohexyl)sulfamoyl)-4-(3-boronopropyl)pyrrolidine-3-carboxylic Acid (Diastereomers), 2,2,2-trifluoroacetic Acid Salt (1:2)], the IC50 is > 101000 nM.
